Molecular target: T1, human MAGL (His-hMAGL) (Homo sapiens, UniProt Q99685)
T1 construct: made in house; host or cells: Escherichia coli BL21(DE3)
T1 sequence (Q99685 1-303): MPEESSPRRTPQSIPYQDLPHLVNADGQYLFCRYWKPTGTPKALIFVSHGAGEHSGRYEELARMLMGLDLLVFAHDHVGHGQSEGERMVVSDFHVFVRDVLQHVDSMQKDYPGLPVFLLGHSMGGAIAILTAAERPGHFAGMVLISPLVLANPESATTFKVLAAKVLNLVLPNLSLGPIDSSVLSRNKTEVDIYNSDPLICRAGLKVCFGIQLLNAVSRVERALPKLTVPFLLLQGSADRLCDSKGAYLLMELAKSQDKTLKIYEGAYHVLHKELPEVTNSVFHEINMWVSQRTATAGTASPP
Assay: Measurement of MAGL inhibitory activity by mass spectrometry
Assay type: biochemical
Conditions: substrate 2-arachidonylglycerol
Protocol: Thereafter, to each well was added 150 μM 2-arachidonylglycerol (Tocris Bioscience) by 5 μL, and the mixture was incubated at room temperature for 10 min. Then, 2% formic acid (Wako Pure Chemical Industries, Ltd.) was added by 10 μL to discontinue the reaction. Furthermore, acetonitrile (50 μL) containing 3 μM arachidonic acid-d8 (Cayman Chemical Company) was added and the mixture was stirred. The amount of arachidonic acid in the obtained enzyme reaction mixture was calculated by measuring by RapidFire-mass spectrometry and correcting by the amount of arachidonic acid-d8. High Throughput online solid phase extraction was performed using RapidFire 300TM system (Agilent Technologies, Inc.). […] The injection needle was washed with ultrapure water (500 millisecond) and acetonitrile (500 millisecond) to minimize carry-over. […] The RapidFire300 system was controlled by RapidFire UI software version 3.6 (Agilent Technologies, Inc.). The mass spectrometry of the resultant product was performed using […] triple quadrupole mass spectrometer (AB SCIEX) equipped with an electrospray ion sauce (Turbolon SprayTM) in a negative selected reaction monitoring (SRM) mode. The conditions of SRM are shown below. The parameters of the instrument were optimized as follows: capillary temperature 600° C., ion spray voltage -4.5 kV, collision gas 8, curtain gas 15 psi, ion source gas 1 60 psi, ion source gas 2 60 psi. The mass spectrometer was controlled by AnalystTM software version 1.5.1 (AB SCIEX). The peak area integration was analyzed using RapidFire integrator software version 3.6 (Agilent Technologies, Inc.). MAGL inhibitory rate (%) was calculated according to the following calculation formula.

[1] = 10 μM test compound, arachidonic acid by RapidFire-mass spectrometry
[2] = MAGL inhibitory rate, test compound 10 μM, His-hMAGL, RapidFire-mass spectrometry

inhibition at 10 µM [1] [%]	inhibition at 10 µM [2] [%]	SMILES
99	–	Cc1cc(-c2cccc(N3CC(N4CCN(C(=O)c5nccs5)CC4)CC3=O)c2)n(C)n1 (stereo not drawn) [Example 157, 1-(3-(1,3-dimethyl-1H-pyrazol-5-yl)phenyl)-4-(4-(1,3-thiazol-2-ylcarbonyl)piperazin-1-yl)pyrrolidin-2-one]
100	–	Cc1ccccc1-c1ccc(N2CC(N3CCN(C(=O)c4nccs4)CC3)CC2=O)cc1 (stereo not drawn) [Example 176, 1-(2′-methylbiphenyl-4-yl)-4-(4-(1,3-thiazol-2-ylcarbonyl)piperazin-1-yl)pyrrolidin-2-one]
80	–	Cc1ccncc1-c1ccc(N2CC(N3CCN(C(=O)c4nccs4)CC3)CC2=O)cc1 (stereo not drawn) [Example 177, 1-(4-(4-methylpyridin-3-yl)phenyl)-4-(4-(1,3-thiazol-2-ylcarbonyl)piperazin-1-yl)pyrrolidin-2-one]
81	–	Cc1cnccc1-c1ccc(N2CC(N3CCN(C(=O)c4nccs4)CC3)CC2=O)cc1 (stereo not drawn) [Example 178, 1-(4-(3-methylpyridin-4-yl)phenyl)-4-(4-(1,3-thiazol-2-ylcarbonyl)piperazin-1-yl)pyrrolidin-2-one]
–	98	O=C(c1nccs1)N1CCN(C2CC(=O)N(c3ccc(-c4ccccc4F)cc3)C2)CC1 (stereo not drawn) [Example 179, 1-(2′-fluorobiphenyl-4-yl)-4-(4-(1,3-thiazol-2-ylcarbonyl)piperazin-1-yl)pyrrolidin-2-one]
–	94	Cc1cc(-c2ccc(N3CC(N4CCN(C(=O)c5nccs5)CC4)CC3=O)cc2)n(C)n1 (stereo not drawn) [Example 180, 1-(4-(1,3-dimethyl-1H-pyrazol-5-yl)phenyl)-4-(4-(1,3-thiazol-2-ylcarbonyl)piperazin-1-yl)pyrrolidin-2-one]
–	94	Cc1nn(C)cc1-c1ccc(N2CC(N3CCN(C(=O)c4nccs4)CC3)CC2=O)cc1 (stereo not drawn) [Example 181, 1-(4-(1,3-dimethyl-1H-pyrazol-4-yl)phenyl)-4-(4-(1,3-thiazol-2-ylcarbonyl)piperazin-1-yl)pyrrolidin-2-one]
–	92	Cc1c(-c2ccc(N3CC(N4CCN(C(=O)c5nccs5)CC4)CC3=O)cc2)cnn1C (stereo not drawn) [Example 182, 1-(4-(1,5-dimethyl-1H-pyrazol-4-yl)phenyl)-4-(4-(1,3-thiazol-2-ylcarbonyl)piperazin-1-yl)pyrrolidin-2-one]
–	98	O=C(c1nccs1)N1CCN(C2CC(=O)N(c3ccc(-c4ccoc4)cc3)C2)CC1 (stereo not drawn) [Example 184, 1-(4-(3-furyl)phenyl)-4-(4-(1,3-thiazol-2-ylcarbonyl)piperazin-1-yl)pyrrolidin-2-one]
–	99	O=C(c1nccs1)N1CCN(C2CC(=O)N(c3ccc(-c4ccccc4Cl)cc3)C2)CC1 (stereo not drawn) [Example 188, 1-(2′-chlorobiphenyl-4-yl)-4-(4-(1,3-thiazol-2-ylcarbonyl)piperazin-1-yl)pyrrolidin-2-one]
–	97	Cc1nc(C)c(-c2ccc(N3CC(N4CCN(C(=O)c5nccs5)CC4)CC3=O)cc2)s1 (stereo not drawn) [Example 189, 1-(4-(2,4-dimethyl-1,3-thiazol-5-yl)phenyl)-4-(4-(1,3-thiazol-2-ylcarbonyl)piperazin-1-yl)pyrrolidin-2-one]
–	83	O=C(c1nccs1)N1CCN(C2CC(=O)N(c3ccc(-c4ccncc4)cc3)C2)CC1 (stereo not drawn) [Example 196, 1-(4-(pyridin-4-yl)phenyl)-4-(4-(1,3-thiazol-2-ylcarbonyl)piperazin-1-yl)pyrrolidin-2-one]

Further lines, the compound ahead of its results:

SMILES	inhibition at 10 µM [1] [%]	inhibition at 10 µM [2] [%]
CCn1nccc1-c1cccc(N2CC(N3CCN(C(=O)c4nccs4)CC3)CC2=O)c1 (stereo not drawn) [Example 156, 1-(3-(1-ethyl-1H-pyrazol-5-yl)phenyl)-4-(4-(1,3-thiazol-2-ylcarbonyl)piperazin-1-yl)pyrrolidin-2-one]	100	–
Cn1nc(C(F)(F)F)cc1-c1cccc(N2CC(N3CCN(C(=O)c4nccs4)CC3)CC2=O)c1 (stereo not drawn) [Example 158, 1-(3-(1-methyl-3-(trifluoromethyl)-1H-pyrazol-5-yl)phenyl)-4-(4-(1,3-thiazol-2-ylcarbonyl)piperazin-1-yl)pyrrolidin-2-one]	99	–
O=C(c1nccs1)N1CCN(C2CC(=O)N(c3ccccc3)C2)CC1 (stereo not drawn) [Example 160, 1-phenyl-4-(4-(1,3-thiazol-2-ylcarbonyl)piperazin-1-yl)pyrrolidin-2-one]	91	–
Cc1nc(C)c(-c2cccc(N3CC(N4CCN(C(=O)c5nccs5)CC4)CC3=O)c2)s1 (stereo not drawn) [Example 161, 1-(3-(2,4-dimethyl-1,3-thiazol-5-yl)phenyl)-4-(4-(1,3-thiazol-2-ylcarbonyl)piperazin-1-yl)pyrrolidin-2-one]	100	–
Cc1ccsc1-c1cccc(N2CC(N3CCN(C(=O)c4nccs4)CC3)CC2=O)c1 (stereo not drawn) [Example 162, 1-(3-(3-methyl-2-thienyl)phenyl)-4-(4-(1,3-thiazol-2-ylcarbonyl)piperazin-1-yl)pyrrolidin-2-one]	99	–
O=C(c1nccs1)N1CCN(C2CC(=O)N(c3cccc(-c4ncccc4C(F)(F)F)c3)C2)CC1 (stereo not drawn) [Example 165, 4-(4-(1,3-thiazol-2-ylcarbonyl)piperazin-1-yl)-1-(3-(3-(trifluoromethyl)pyridin-2-yl)phenyl)pyrrolidin-2-one]	100	–
O=C(c1ncco1)N1CCN(C2CC(=O)N(c3cccc(-c4ccccc4Cl)c3)C2)CC1 (stereo not drawn) [Example 166, 1-(2′-chlorobiphenyl-3-yl)-4-(4-(1,3-oxazol-2-ylcarbonyl)piperazin-1-yl)pyrrolidin-2-one]	99	–
Cc1ncccc1-c1cccc(N2CC(N3CCN(C(=O)c4ncco4)CC3)CC2=O)c1 (stereo not drawn) [Example 167, 1-(3-(2-methylpyridin-3-yl)phenyl)-4-(4-(1,3-oxazol-2-ylcarbonyl)piperazin-1-yl)pyrrolidin-2-one]	94	–
O=C(c1cscn1)N1CCN(C2CC(=O)N(c3cccc(-c4ccccc4Cl)c3)C2)CC1 (stereo not drawn) [Example 168, 1-(2′-chlorobiphenyl-3-yl)-4-(4-(1,3-thiazol-4-ylcarbonyl)piperazin-1-yl)pyrrolidin-2-one]	101	–
Cc1ncccc1-c1cccc(N2CC(N3CCN(C(=O)c4cscn4)CC3)CC2=O)c1 (stereo not drawn) [Example 169, 1-(3-(2-methylpyridin-3-yl)phenyl)-4-(4-(1,3-thiazol-4-ylcarbonyl)piperazin-1-yl)pyrrolidin-2-one]	97	–
O=C(c1nccs1)N1CCN(C2CC(=O)N(c3ccc(F)c(Br)c3)C2)CC1 (stereo not drawn) [Example 170, 1-(3-bromo-4-fluorophenyl)-4-(4-(1,3-thiazol-2-ylcarbonyl)piperazin-1-yl)pyrrolidin-2-one]	98	–
CC(C)n1nccc1-c1cccc(N2CC(N3CCN(C(=O)c4nccs4)CC3)CC2=O)c1 (stereo not drawn) [Example 171, 1-(3-(1-isopropyl-1H-pyrazol-5-yl)phenyl)-4-(4-(1,3-thiazol-2-ylcarbonyl)piperazin-1-yl)pyrrolidin-2-one]	99	–
Cc1ncccc1-c1cccc(N2CC(N3CCN(C(=O)c4nccs4)CC3)CC2=O)n1 (stereo not drawn) [Example 174, 1-(2′-methyl-2,3′-bipyridin-6-yl)-4-(4-(1,3-thiazol-2-ylcarbonyl)piperazin-1-yl)pyrrolidin-2-one]	100	–
N#Cc1cccc(-c2ccc(N3CC(N4CCN(C(=O)c5nccs5)CC4)CC3=O)cc2)c1 (stereo not drawn) [Example 185, 4′-(2-oxo-4-(4-(1,3-thiazol-2-ylcarbonyl)piperazin-1-yl)pyrrolidin-1-yl)biphenyl-3-carbonitrile]	–	100
O=C(c1nccs1)N1CCN(C2CC(=O)N(c3ccc(-c4cccc(CO)c4)cc3)C2)CC1 (stereo not drawn) [Example 187, 1-(3′-(hydroxymethyl)biphenyl-4-yl)-4-(4-(1,3-thiazol-2-ylcarbonyl)piperazin-1-yl)pyrrolidin-2-one]	–	96
CC(=O)Nc1cccc(-c2ccc(N3CC(N4CCN(C(=O)c5nccs5)CC4)CC3=O)cc2)c1 (stereo not drawn) [Example 191, N-(4′-(2-oxo-4-(4-(1,3-thiazol-2-ylcarbonyl)piperazin-1-yl)pyrrolidin-1-yl)biphenyl-3-yl)acetamide]	–	96
NS(=O)(=O)c1ccc(-c2ccc(N3CC(N4CCN(C(=O)c5nccs5)CC4)CC3=O)cc2)cc1 (stereo not drawn) [Example 193, 4′-(2-oxo-4-(4-(1,3-thiazol-2-ylcarbonyl)piperazin-1-yl)pyrrolidin-1-yl)biphenyl-4-sulfonamide]	–	97
NS(=O)(=O)c1cccc(-c2ccc(N3CC(N4CCN(C(=O)c5nccs5)CC4)CC3=O)cc2)c1 (stereo not drawn) [Example 194, 4′-(2-oxo-4-(4-(1,3-thiazol-2-ylcarbonyl)piperazin-1-yl)pyrrolidin-1-yl)biphenyl-3-sulfonamide]	–	96
